Drawing on US9474275B2, “Cyanoenamines and their use as fungicides” (priority 2010, dated 2016), this text covers efficacy and LogP for 40 molecules.

The test system of one data set is Plasmopara viticola. Kind of data set: Plasmopara test (grapevines) / preventive. The data set is classed as in vivo. The following applies: grapevine plants, preventive spray, 100 ppm of active ingredient, evaluated 6 days after inoculation; 0% = untreated control, 100% = no disease. As to the method: Solvent: 24.5 parts by weight of acetone • 24.5 parts by weight of dimethylacetamide
Emulsifier: 1 part by weight of alkylaryl polyglycol ether
To produce a suitable preparation of active compound, 1 part by weight of active compound is mixed with the stated amounts of solvent and emulsifier, and the concentrate is diluted with water to the desired concentration. To test for preventive activity, young plants are sprayed with the preparation of active compound at the stated rate of application. After the spray coating has dried on, the plants are inoculated with an aqueous spore suspension of Plasmopara viticola and then remain for 1 day in an incubation cabinet at approximately 20° C. and a relative atmospheric humidity of 100%. The plant is subsequently placed for 4 days in a greenhouse at approximately 21° C. and a relative atmospheric humidity of approximately 90%. The plants are then misted and placed for 1 day in an incubation cabinet. The test is evaluated 6 days after the inoculation. 0% means an efficacy which corresponds to that of the untreated control, while an efficacy of 100% means that no disease is observed.

In another data set the test system is Phytophthora infestans. The data set is classed as in vivo. Particulars: tomato plants, preventive spray, 500 ppm of active ingredient, evaluated 7 days after inoculation; 0% = untreated control, 100% = no disease.
For data set [1] the following is noted: pH 2.7.
Description: (§1) Measurement of log P values was performed according EEC directive 79/831 Annex V.A8 by HPLC (High Performance Liquid Chromatography) on reversed phase columns with the following methods:
(§2) ^[a] measurement of LC-MS was done at pH 2.7 with 0.1% formic acid in water and with acetonitrile (contains 0.1% formic acid) as eluent with a linear gradient from 10% acetonitrile to 95% acetonitrile.
For data set [2] the following is noted: method [a]: LC-MS at pH 2.7, 0.1% formic acid in water / acetonitrile, linear gradient 10% to 95% acetonitrile.
Description: as §1, §2

Where two headings read alike, the source gives them in different places. Marks after values point to notes of the source that are not given here.

Turning to `CCCC(=O)C(C#N)=C(NC(C)c1ncc(C)s1)c1cccnc1Cl` (racemic) [Compound 107], the efficacy in the data set on Plasmopara viticola was determined as 100%; with Phytophthora infestans it was 95%. The LogP in data set [1] was 3.19^[a].

As for `CCCC(=O)C(C#N)=C(NC(C)C1CC1)c1cn(C)nc1C(F)F` (stereo not drawn) [Compound 18], the values for the efficacy with Plasmopara viticola and in the data set on Phytophthora infestans were 91% and 95%, respectively. Also, in data set [1], the LogP is 3.08^[a].

As to `CCCC(=O)C(C#N)=C(NC(C)c1nccs1)c1cn(C)nc1C(F)F` (stereo not drawn) [Compound 80], the values for the efficacy in the data set on Plasmopara viticola and in the data set on Phytophthora infestans were 94% and 95%, respectively. Also, the LogP in data set [1] was 2.59^[a].

On to `CCCC(=O)C(C#N)=C(NC(C)c1ccsn1)c1cccnc1Cl` (stereo not drawn) [Compound 85], for which the efficacy with Plasmopara viticola was found to be 87%; with Phytophthora infestans it was 97%.

For the molecule `CC=CC(=O)C(C#N)=C(NC(C)C(C)C)c1cccnc1Cl` (stereo not drawn) [Compound 75], the efficacy came to 88% with Plasmopara viticola and 90% in the data set on Phytophthora infestans. In data set [1], the LogP is 3.35^[a].

For `CCCC(=O)C(C#N)=C(NC(C)c1ccsn1)c1cn(C)nc1C(F)F` (stereo not drawn) [Compound 88], the efficacy with Plasmopara viticola is given as 100%; in the data set on Phytophthora infestans it was 97%. Besides, the LogP in data set [1] was 2.73^[a].

In the case of `CCCC(=O)C(C#N)=C(NC(C)CCC)c1cn(C)nc1C(F)F` (racemic) [Compound 129], the LogP in data set [2] was 3.33^[a]. For the same molecule, the efficacy with Phytophthora infestans was 75%.

On to `CC#CC(C)NC(=C(C#N)C(=O)CCC)c1cccnc1Cl` (racemic) [Compound 113], for which the LogP in data set [2] is 3.09^[a]. This molecule yielded an efficacy in the data set with Phytophthora infestans of 85%.

Consider `C=CCCC(=O)C(C#N)=C(NC(C)C(C)C)c1cccnc1Cl` (stereo not drawn) [Compound 73], for which the LogP in data set [2] is 3.7^[a]. In the data set on Phytophthora infestans, this molecule gave an efficacy of 80%.

For `CCCC(=O)C(C#N)=C(NC(C)C(C)OC)c1cccnc1Cl` (mixture of isomers) [Compound 114], in data set [2], the LogP is 3.02^[a]. The same molecule gave an efficacy with Phytophthora infestans of 95%.

Consider `CC(C)C(C)NC(=C(C#N)C(=O)C1CCOC1)c1cccnc1Cl` (stereo not drawn) [Compound 28], for which, in data set [1], the LogP was 2.70^[a].

Turning to `CCCC(=O)C(C#N)=C(NC(C)C(C)(C)C)c1cccnc1Cl` (stereo not drawn) [Compound 87], the efficacy with Plasmopara viticola and with Phytophthora infestans was 100% in each case.

As to `CCCC(=O)C(C#N)=C(NC(C)CC)c1cn(C)nc1C(F)F` (racemic) [Compound 122], the LogP in data set [2] was 2.98^[a]. Further, the efficacy with Phytophthora infestans is 90%.

For `CCCC(=O)C(C#N)=C(NC(C)COC)c1cccnc1C` (stereo not drawn) [Compound 91], in data set [2], the LogP was 2.14^[a]. Also, the efficacy in the data set with Phytophthora infestans was found to be 100%.

In the case of `CCCCC(=O)C(C#N)=C(NC(C)C(C)C)c1cccnc1Cl` (stereo not drawn) [Compound 16], in data set [2], the LogP is 4.06^[a]. This molecule also showed an efficacy in the data set with Phytophthora infestans of 95%.

With `CC(NC(=C(C#N)C(=O)C1CC1)c1cn(C)nc1C(F)F)C1CC1` (stereo not drawn) [Compound 59], the LogP in data set [2] is 2.90^[a]. Further, the efficacy in the data set with Phytophthora infestans was determined as 90%.

Take `C#CC(C)NC(=C(C#N)C(=O)CCC)c1cccnc1Cl` (racemic) [Compound 112]: the LogP in data set [2] was 2.9^[a]. This molecule also registered an efficacy in the data set on Phytophthora infestans of 83%.

As to `CCCC(=O)C(C#N)=C(NC(C)C1(C)CC1)c1cccnc1Cl` (racemic) [Compound 103], the LogP in data set [2] was 3.57^[a]. The same molecule yielded an efficacy in the data set on Phytophthora infestans of 95%.

`CCC(=O)C(C#N)=C(NC(C)C(C)C)c1cn(C)nc1C(F)F` (stereo not drawn) [Compound 23]: the LogP in data set [2] was 2.92^[a]. In addition, the efficacy in the data set with Phytophthora infestans was 93%.

Take `CCCC(=O)C(C#N)=C(NC(C)C(=O)OCC)c1cn(C)nc1C(F)F` (racemic) [Compound 131]: the LogP in data set [2] is 2.78^[a]. In the data set on Phytophthora infestans, the efficacy was determined as 80%.

Take `CC(C)C(C)NC(=C(C#N)C(=O)C1(F)CC1)c1cccnc1Cl` (stereo not drawn) [Compound 10]: the LogP in data set [2] was 3.29^[a]. In the data set on Phytophthora infestans, this molecule had an efficacy of 95%.

Turning to `CCCC(=O)C(C#N)=C(NC(C)c1ccco1)c1cn(C)nc1C(F)F` (racemic) [Compound 132], the LogP in data set [2] was 3.04^[a]. Also, in the data set on Phytophthora infestans, the efficacy is reported as 90%.

With `CCCC(=O)C(C#N)=C(NC(C)c1c(F)cccc1F)c1cn(C)nc1C(F)F` (stereo not drawn) [Compound 110], in data set [2], the LogP was 3.46^[a]. This molecule also showed an efficacy with Phytophthora infestans of 95%.

Consider `CCCC(=O)C(C#N)=C(NC1CCC1)c1cccnc1Cl` [Compound 102], for which the LogP in data set [2] was 3.13^[a]. The molecule further yielded an efficacy in the data set with Phytophthora infestans of 80%.

In the case of `CCCCC(=O)C(C#N)=C(NC(C)C1(Cl)CC1)c1cccnc1Cl` (stereo not drawn) [Compound 47], in data set [2], the LogP was 2.33^[a]. In the data set with Phytophthora infestans, the efficacy stood at 75%.

For `CCCC(=O)C(C#N)=C(NC(C)COCC)c1cccnc1Cl` (stereo not drawn) [Compound 86], the efficacy is reported as 90% with Plasmopara viticola and 97% in the data set with Phytophthora infestans.

Regarding `COCC(=O)C(C#N)=C(NC(C)C1CC1)c1cn(C)nc1C(F)F` (stereo not drawn) [Compound 17], in data set [2], the LogP is 2.15^[a]. In addition, the efficacy in the data set on Phytophthora infestans is on record as 100%.

For `CC(C)C(C)NC(=C(C#N)C(=O)c1ccsn1)c1cccnc1Cl` (stereo not drawn) [Compound 25], the LogP in data set [2] is 2.98^[a]. In the data set with Phytophthora infestans, this molecule returned an efficacy of 75%.

Turning to `CCCC(=O)C(C#N)=C(NC(C)C1CCC1)c1cccnc1Cl` (racemic) [Compound 104], in data set [2], the LogP was 3.81^[a]. In the data set on Phytophthora infestans, this molecule displayed an efficacy of 95%.

As for `CCCC(=O)C(C#N)=C(NC(C)CCc1ccccc1)c1cccnc1Cl` (racemic) [Compound 116], the LogP in data set [2] was 4.16^[a]. Further, the efficacy in the data set on Phytophthora infestans turned out to be 85%.

Consider `CC#CC(C)NC(=C(C#N)C(=O)CCC)c1cn(C)nc1C(F)F` (racemic) [Compound 125], for which, in data set [2], the LogP was 2.98^[a]. The molecule further gave an efficacy in the data set with Phytophthora infestans of 75%.

Consider `CCCC(=O)C(C#N)=C(NC(C)COC)c1cccnc1Cl` (stereo not drawn) [Compound 83], for which the efficacy in the data set on Plasmopara viticola and with Phytophthora infestans was 100% throughout.

As for `CCCC(=O)C(C#N)=C(NC(C)c1nccs1)c1cccnc1Cl` (stereo not drawn) [Compound 26], in data set [2], the LogP was 2.61^[a]. Further, in the data set with Phytophthora infestans, the efficacy was 100%.

Regarding `CCC1CC1NC(=C(C#N)C(=O)CC1CC1)c1cccnc1Cl` (stereo not drawn) [Compound 72], the LogP in data set [2] was 3.46^[a]. The efficacy in the data set on Phytophthora infestans was 100%.

On to `C#CC(C)NC(=C(C#N)C(=O)CCC)c1cn(C)nc1C(F)F` (racemic) [Compound 124], for which, in data set [2], the LogP is 2.66^[a]. Besides, the efficacy in the data set with Phytophthora infestans is listed as 93%.

Regarding `CCCC(=O)C(C#N)=C(NC1CCC1)c1cn(C)nc1C(F)F` [Compound 120], in data set [2], the LogP is 2.88^[a]. Further, the efficacy with Phytophthora infestans is reported as 90%.

Consider `CCCC(=O)C(C#N)=C(NC(C)C1=NOCC1)c1cccnc1Cl` (racemic) [Compound 100], for which, in data set [2], the LogP is 2.47^[a]. The molecule also registered an efficacy with Phytophthora infestans of 95%.

Consider `CCCC(=O)C(C#N)=C(NC(C)CC1CC1)c1cn(C)nc1C(F)F` (racemic) [Compound 130], for which the LogP in data set [2] was 3.35^[a]. In the data set on Phytophthora infestans, this molecule registered an efficacy of 85%.

For `CC(C)C(C)NC(=C(C#N)C(=O)C1CC1)c1cn(C)nc1C(F)F` (stereo not drawn) [Compound 52], the LogP in data set [2] is 3.11^[a]. The same molecule gave an efficacy with Phytophthora infestans of 75%.

In the case of `CCCC(=O)C(C#N)=C(NC(C)c1c(F)cccc1F)c1cccnc1Cl` (stereo not drawn) [Compound 106], the LogP in data set [2] was 3.46^[a]. This molecule also returned an efficacy in the data set with Phytophthora infestans of 75%.
